Data published in ChEMBL document CHEMBL1145498, “A systematic interaction map of validated kinase inhibitors with Ser/Thr kinases” (Proc Natl Acad Sci U S A, 2007).

Legend:
[1] = target: STE20-like serine/threonine-protein kinase (Homo sapiens) (UniProt Q9H2G2)
[2] = target: T1, Serine/threonine-protein kinase Nek2 (Homo sapiens) (UniProt P51955)
T1 sequence (whole entry): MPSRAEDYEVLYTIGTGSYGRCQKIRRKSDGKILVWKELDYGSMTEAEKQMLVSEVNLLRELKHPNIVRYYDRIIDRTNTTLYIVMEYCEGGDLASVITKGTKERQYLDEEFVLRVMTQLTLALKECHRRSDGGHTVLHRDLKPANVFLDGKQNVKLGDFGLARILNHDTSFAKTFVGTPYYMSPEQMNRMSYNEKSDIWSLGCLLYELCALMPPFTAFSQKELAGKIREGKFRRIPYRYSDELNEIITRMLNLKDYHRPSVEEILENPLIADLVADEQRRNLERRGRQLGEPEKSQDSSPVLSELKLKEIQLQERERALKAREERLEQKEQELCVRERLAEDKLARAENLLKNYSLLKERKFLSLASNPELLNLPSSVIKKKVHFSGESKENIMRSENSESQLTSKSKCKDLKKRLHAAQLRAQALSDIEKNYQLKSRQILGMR

[3] = target: T2, Calcium/calmodulin-dependent protein kinase type IV (Homo sapiens) (UniProt Q16566)
T2 sequence (whole entry): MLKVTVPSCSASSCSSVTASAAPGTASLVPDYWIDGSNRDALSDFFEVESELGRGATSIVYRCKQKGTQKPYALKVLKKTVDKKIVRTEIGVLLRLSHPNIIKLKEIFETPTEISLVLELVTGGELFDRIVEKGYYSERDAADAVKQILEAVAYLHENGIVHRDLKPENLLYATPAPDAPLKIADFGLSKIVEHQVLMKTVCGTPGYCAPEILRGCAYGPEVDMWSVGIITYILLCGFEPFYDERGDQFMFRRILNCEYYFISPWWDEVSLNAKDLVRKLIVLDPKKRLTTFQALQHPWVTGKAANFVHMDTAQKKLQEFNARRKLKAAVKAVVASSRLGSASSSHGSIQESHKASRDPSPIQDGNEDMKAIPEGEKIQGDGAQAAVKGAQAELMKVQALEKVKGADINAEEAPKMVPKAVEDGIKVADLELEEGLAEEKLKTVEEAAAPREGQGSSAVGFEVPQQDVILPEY

[4] = target: Cyclin-dependent kinase 6 (Homo sapiens) (UniProt Q00534)
[5] = target: Calcium/calmodulin-dependent protein kinase type II subunit gamma (Homo sapiens) (UniProt Q13555)
[6] = target: Ribosomal protein S6 kinase alpha-3 (Homo sapiens) (UniProt P51812)
[7] = target: Serine/threonine-protein kinase 10 (Homo sapiens) (UniProt O94804)
[8] = target: T3, 3-phosphoinositide-dependent protein kinase 1 (Homo sapiens) (UniProt O15530)
T3 sequence (whole entry): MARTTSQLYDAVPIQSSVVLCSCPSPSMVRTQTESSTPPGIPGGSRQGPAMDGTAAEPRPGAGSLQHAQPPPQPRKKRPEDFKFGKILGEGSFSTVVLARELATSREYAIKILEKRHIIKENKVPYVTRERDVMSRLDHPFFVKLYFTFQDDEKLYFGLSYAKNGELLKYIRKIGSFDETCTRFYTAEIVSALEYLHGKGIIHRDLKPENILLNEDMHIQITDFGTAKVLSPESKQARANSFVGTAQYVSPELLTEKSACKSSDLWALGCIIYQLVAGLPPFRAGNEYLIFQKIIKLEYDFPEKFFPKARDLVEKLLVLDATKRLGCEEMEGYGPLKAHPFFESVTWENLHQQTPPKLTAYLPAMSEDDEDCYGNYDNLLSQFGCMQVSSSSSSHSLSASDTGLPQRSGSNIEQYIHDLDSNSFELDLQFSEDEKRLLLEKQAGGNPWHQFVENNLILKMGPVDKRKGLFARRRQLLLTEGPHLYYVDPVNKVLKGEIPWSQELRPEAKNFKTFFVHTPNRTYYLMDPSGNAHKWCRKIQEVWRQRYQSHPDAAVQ

[9] = target: Dual specificity protein kinase CLK1 (Homo sapiens) (UniProt P49759)
[10] = target: Calcium/calmodulin-dependent protein kinase type II subunit alpha (Homo sapiens) (UniProt Q9UQM7)
[11] = target: Serine/threonine-protein kinase 26 (Homo sapiens) (UniProt Q9P289)
[12] = target: T4, Lymphokine-activated killer T-cell-originated protein kinase (Homo sapiens) (UniProt Q96KB5)
T4 sequence (whole entry): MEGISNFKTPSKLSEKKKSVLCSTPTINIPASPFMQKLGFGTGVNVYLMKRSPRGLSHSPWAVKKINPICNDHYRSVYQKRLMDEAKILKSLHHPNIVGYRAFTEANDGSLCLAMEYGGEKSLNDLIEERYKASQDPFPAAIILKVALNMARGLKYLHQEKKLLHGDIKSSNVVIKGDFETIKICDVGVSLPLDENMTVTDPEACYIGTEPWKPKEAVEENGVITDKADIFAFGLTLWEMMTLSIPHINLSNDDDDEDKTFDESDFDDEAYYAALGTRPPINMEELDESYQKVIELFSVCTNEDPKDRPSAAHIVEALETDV

[13] = target: Serine/threonine-protein kinase PAK 6 (Homo sapiens) (UniProt Q9NQU5)
[14] = target: Serine/threonine-protein kinase pim-3 (Homo sapiens) (UniProt Q86V86)
[15] = target: Serine/threonine-protein kinase 16 (Homo sapiens) (UniProt O75716)
[16] = target: Serine/threonine-protein kinase Nek6 (Homo sapiens) (UniProt Q9HC98)
[17] = target: Tyrosine-protein kinase JAK1 (Homo sapiens) (UniProt P23458)

Serine/threonine-protein kinase PAK 6 (Homo sapiens), sequence (Q9NQU5 whole entry, looked up): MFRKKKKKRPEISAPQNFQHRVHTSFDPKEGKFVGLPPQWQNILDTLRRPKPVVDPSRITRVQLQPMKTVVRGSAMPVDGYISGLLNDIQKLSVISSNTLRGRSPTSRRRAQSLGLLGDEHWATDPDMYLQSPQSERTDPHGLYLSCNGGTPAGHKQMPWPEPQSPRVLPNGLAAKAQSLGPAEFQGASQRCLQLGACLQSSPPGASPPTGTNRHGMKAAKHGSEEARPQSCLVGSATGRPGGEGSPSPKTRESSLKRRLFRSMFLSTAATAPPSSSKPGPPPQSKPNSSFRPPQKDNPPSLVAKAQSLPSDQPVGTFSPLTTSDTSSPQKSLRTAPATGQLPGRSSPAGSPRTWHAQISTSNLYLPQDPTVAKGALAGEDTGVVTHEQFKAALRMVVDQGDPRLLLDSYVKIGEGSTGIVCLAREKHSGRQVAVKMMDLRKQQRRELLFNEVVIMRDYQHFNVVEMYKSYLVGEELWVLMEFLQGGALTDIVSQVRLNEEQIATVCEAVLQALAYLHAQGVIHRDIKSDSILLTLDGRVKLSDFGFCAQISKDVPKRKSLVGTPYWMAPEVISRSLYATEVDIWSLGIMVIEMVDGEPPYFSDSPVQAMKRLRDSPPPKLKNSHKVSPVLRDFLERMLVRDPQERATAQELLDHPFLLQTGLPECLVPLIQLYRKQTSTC
Calcium/calmodulin-dependent protein kinase type II subunit gamma (Homo sapiens), sequence (Q13555 whole entry): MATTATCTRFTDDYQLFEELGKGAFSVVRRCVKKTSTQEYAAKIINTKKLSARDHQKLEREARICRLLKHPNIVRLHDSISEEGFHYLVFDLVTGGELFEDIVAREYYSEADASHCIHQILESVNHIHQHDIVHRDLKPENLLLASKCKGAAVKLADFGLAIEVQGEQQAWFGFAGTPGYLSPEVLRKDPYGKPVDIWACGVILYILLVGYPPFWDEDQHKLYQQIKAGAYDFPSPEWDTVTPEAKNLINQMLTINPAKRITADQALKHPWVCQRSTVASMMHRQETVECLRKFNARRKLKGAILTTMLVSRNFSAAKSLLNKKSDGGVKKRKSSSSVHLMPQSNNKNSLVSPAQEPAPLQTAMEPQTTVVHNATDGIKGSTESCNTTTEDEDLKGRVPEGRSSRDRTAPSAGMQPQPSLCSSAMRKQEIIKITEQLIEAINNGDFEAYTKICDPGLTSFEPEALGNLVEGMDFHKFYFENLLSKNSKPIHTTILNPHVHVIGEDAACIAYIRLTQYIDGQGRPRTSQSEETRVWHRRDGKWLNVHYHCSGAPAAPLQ
Cyclin-dependent kinase 6 (Homo sapiens), sequence (Q00534 whole entry): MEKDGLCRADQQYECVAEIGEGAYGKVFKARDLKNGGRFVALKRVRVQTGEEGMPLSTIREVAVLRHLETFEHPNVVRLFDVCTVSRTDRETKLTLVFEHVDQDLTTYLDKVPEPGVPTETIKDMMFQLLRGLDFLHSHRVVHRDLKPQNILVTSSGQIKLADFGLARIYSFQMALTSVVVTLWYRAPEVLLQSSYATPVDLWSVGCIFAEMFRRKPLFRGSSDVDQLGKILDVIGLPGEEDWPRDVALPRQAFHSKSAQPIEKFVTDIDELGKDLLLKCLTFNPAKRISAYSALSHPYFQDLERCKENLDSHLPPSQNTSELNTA
Serine/threonine-protein kinase 26 (Homo sapiens), sequence (Q9P289 2-416 limits assumed): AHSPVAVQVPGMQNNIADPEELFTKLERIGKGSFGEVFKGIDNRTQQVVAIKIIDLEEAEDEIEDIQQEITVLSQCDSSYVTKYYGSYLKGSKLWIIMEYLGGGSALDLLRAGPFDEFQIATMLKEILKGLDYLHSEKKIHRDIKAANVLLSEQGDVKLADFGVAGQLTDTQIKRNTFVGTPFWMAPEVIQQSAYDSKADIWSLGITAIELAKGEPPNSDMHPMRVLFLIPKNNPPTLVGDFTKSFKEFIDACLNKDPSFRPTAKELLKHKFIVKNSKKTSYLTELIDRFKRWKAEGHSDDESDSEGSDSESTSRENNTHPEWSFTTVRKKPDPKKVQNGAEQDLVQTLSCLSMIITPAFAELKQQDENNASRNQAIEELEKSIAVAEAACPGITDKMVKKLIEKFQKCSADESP
Serine/threonine-protein kinase 16 (Homo sapiens), sequence (O75716 whole entry): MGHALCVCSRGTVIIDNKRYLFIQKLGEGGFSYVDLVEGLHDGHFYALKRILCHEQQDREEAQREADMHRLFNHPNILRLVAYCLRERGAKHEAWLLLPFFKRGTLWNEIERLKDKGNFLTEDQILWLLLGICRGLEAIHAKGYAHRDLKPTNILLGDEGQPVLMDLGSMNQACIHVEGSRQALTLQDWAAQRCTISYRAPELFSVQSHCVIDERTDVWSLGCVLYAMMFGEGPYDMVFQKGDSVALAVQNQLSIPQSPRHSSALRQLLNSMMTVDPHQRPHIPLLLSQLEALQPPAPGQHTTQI
Dual specificity protein kinase CLK1 (Homo sapiens), sequence (P49759 whole entry, looked up): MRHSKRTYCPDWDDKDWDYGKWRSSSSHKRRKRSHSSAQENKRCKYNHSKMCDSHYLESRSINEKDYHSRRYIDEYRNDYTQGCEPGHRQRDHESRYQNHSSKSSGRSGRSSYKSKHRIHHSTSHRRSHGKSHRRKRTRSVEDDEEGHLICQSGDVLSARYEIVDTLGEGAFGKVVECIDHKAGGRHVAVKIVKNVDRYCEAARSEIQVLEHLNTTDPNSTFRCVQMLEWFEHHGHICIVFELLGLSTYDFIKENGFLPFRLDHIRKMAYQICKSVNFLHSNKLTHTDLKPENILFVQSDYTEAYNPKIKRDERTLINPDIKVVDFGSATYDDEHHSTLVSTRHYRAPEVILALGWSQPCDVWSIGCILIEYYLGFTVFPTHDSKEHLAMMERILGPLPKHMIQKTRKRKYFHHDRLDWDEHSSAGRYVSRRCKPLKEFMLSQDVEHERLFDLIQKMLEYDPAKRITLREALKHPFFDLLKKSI
Calcium/calmodulin-dependent protein kinase type II subunit alpha (Homo sapiens), sequence (Q9UQM7 whole entry): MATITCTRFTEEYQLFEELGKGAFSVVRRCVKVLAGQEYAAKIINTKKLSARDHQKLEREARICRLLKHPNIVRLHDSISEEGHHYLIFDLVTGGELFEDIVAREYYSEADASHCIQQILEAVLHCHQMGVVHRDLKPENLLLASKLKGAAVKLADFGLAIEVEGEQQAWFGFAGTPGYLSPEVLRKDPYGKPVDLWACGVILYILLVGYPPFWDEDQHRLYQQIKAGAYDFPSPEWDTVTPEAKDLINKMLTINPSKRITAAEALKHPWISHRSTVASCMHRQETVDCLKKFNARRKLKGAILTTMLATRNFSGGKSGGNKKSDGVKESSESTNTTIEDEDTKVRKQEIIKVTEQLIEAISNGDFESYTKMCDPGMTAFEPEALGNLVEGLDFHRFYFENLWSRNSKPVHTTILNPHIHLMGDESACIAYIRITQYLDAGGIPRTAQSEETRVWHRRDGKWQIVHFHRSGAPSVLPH
STE20-like serine/threonine-protein kinase (Homo sapiens), sequence (Q9H2G2 whole entry, looked up): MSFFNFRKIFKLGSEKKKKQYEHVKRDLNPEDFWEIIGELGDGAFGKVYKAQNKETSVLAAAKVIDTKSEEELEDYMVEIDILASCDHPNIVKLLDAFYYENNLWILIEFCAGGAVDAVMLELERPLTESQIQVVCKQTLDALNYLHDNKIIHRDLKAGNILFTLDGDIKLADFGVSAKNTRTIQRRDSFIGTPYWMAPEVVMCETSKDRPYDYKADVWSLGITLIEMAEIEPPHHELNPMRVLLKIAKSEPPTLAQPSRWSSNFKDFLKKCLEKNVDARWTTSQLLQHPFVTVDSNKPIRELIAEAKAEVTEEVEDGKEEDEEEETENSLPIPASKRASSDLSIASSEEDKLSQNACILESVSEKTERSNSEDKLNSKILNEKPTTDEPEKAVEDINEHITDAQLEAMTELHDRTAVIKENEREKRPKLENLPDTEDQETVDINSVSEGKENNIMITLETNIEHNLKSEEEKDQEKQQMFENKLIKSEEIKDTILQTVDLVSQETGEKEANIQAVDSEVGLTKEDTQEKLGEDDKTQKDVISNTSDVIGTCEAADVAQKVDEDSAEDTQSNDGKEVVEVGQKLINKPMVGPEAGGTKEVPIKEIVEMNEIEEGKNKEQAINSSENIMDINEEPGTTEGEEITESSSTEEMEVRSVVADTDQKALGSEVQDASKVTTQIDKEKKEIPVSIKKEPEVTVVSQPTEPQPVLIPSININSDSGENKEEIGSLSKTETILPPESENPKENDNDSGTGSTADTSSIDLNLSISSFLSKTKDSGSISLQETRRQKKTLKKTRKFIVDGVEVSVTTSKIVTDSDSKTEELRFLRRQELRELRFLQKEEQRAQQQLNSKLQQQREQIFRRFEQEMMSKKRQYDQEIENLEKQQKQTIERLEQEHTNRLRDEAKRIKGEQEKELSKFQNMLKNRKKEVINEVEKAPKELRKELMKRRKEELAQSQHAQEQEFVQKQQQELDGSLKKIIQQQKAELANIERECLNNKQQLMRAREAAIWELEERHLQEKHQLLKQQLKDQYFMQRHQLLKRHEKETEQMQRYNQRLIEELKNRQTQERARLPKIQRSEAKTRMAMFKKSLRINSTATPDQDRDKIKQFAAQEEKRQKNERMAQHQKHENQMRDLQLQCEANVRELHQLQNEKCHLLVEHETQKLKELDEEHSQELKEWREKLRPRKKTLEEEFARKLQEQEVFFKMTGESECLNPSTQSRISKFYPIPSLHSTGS
Serine/threonine-protein kinase Nek6 (Homo sapiens), sequence (Q9HC98 whole entry): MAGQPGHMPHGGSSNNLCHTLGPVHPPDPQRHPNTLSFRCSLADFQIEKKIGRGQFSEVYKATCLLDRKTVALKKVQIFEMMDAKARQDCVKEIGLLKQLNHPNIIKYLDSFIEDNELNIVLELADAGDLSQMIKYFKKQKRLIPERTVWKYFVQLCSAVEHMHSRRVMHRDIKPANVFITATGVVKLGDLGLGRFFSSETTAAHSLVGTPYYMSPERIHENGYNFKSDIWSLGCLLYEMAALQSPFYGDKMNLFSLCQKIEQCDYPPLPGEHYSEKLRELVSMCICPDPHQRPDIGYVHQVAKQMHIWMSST

Row | Compound | ΔTm [1] [°C] | ΔTm [2] [°C] | ΔTm [3] [°C] | ΔTm [4] [°C] | ΔTm [5] [°C] | ΔTm [6] [°C] | ΔTm [7] [°C] | ΔTm [8] [°C] | ΔTm [9] [°C] | ΔTm [10] [°C] | ΔTm [11] [°C] | ΔTm [12] [°C] | ΔTm [13] [°C] | ΔTm [14] [°C] | ΔTm [15] [°C] | ΔTm [16] [°C] | ΔTm [17] [°C]
1 | NCCNc1ncc(C(N)=O)c(Nc2cccc(C(F)(F)F)c2)n1 | 0.1 | 0.2 | 0.9 | 1.1 | 1.1 | 2.6 | 2.8 | 5.5 | 2.2 | -0.3 | 1 | 0.5 | 0.9 | 1.1 | 1.9 | 2 | 1.4
2 | COc1cc2ncnc(Nc3ccc(NC(=O)c4ccccc4)cc3)c2cc1OC [ANILINOQUINAZOLINE1] | 0.1 | 0.3 | 0.9 | 1.1 | 0.2 | 9.4 | 0.1 | 1.1 | 1 | 0 | 1.8 | 0.3 | 0.6 | 6.2 | 0.4 | 0.5 | 1.9
3 | CCCNC(=O)Nc1ccc(Oc2ncnc3cc(OC)c(OC)cc23)cc1Cl [KRN-633] | 0.5 | -0.3 | 0.9 | 0.6 | 0.3 | 10.7 | 0.4 | -0.1 | -1.7 | 0.8 | 1.2 | 0.2 | 0.8 | 4.9 | 0.2 | 0.8 | 1
4 | Cc1cc(Nc2nc(-c3ccccc3)nc3ccccc23)n[nH]1 | 7.1 | 3 | 4.7 | 1.9 | 1.9 | 6.4 | 11.1 | -0.4 | 5.8 | 1.4 | 3.3 | 0.9 | 5.4 | 5.2 | 5.6 | 0.4 | 12.2
5 | COc1cc2c(cc1OC)-c1n[nH]c(Nc3cccc(F)c3)c1C2 | 2.1 | 0.6 | 0.5 | 1.7 | -0.1 | 2.8 | 2.5 | -0.2 | 0.1 | 0.3 | 1.2 | 0.2 | 0.5 | 2.6 | 0.4 | 0.1 | 0.4
6 | O=C1NC(=O)C(c2cn(CCCn3ccnc3)c3ccccc23)=C1Nc1ccccc1 | 4.8 | 1.2 | -0.7 | 0.9 | 0.9 | 6.3 | 2 | 0.1 | 5.8 | 1.7 | 2 | 0.8 | -0.4 | -0.3 | 0.6 | -0.1 | 1.1
7 | c1ccc(-c2n[nH]c3c2oc2ccccc23)cc1 | 1.6 | 0.1 | -0.2 | 0.6 | 0.4 | 1.1 | 1.9 | -0.5 | 1.8 | 0.3 | 0.6 | -0.2 | -0.3 | -1.3 | 6.8 | 0 | 5.2
8 | NC(=O)c1ccc2[nH]c(-c3ccc(Oc4ccc(Cl)cc4)cc3)nc2c1 | 0 | 1.4 | -0.4 | 0.6 | -0.1 | 1 | 0.3 | -0.5 | 1.2 | 0.1 | -0.1 | 0.9 | -0.8 | -0.8 | 4.7 | 0.4 | 1.7
9 | CCCCc1c(-c2ccc(O)cc2)[nH]c2nccnc12 [ALOISINE A] | 6.8 | -0.4 | 0.4 | 1.3 | 1.1 | 1.9 | 5 | 4 | 3.5 | 0.1 | 1.1 | 0.7 | 0.5 | 7.7 | 2.6 | 2.9 | 0.5
10 | O=C1NC(=O)c2c1c1c3ccccc3[nH]c1n1cncc21 [ISOGRANULATIMIDE] | 2.1 | 2.4 | 6 | 2.7 | 2.5 | 2.5 | 5.4 | 1.9 | 4.5 | 3.6 | 2.5 | 1 | -0.5 | 8.8 | 7.4 | 1.5 | 7.5
11 | CCOc1ccc(/C=C2/SC(=O)N(CCN)C2=O)cc1 [HIAZOLIDINEDIONE1] | -0.4 | 0.8 | 0.4 | 0.2 | 0 | 0 | 0.8 | -0.3 | 0.9 | -0.2 | -0.3 | 0.2 | -0.5 | 0.5 | -0.1 | -1.7 | -0.1
12 | Cc1c2ccncc2c(C)c2c1[nH]c1ccccc12 [ELLIPTECINE] | 4.1 | 0.5 | 0.4 | 0.2 | 1.6 | 1.8 | 1.9 | 8.6 | 6.6 | 2.2 | 0.4 | 0.3 | -0.5 | 1.3 | 10.7 | 2.5 | 2.3
